Literature values as cited in patent US20240398979A1, “Compositions and Methods for Treating Dopamine Disorders” (METAQOR LLC, priority 2020, published 2024).

What was measured:
[1] = tested on: methamphetamine use disorder; conditions: randomized controlled trials / meta-analyses

For CC1(C)O[C@@H]2[C@@H](CO[C@@]3(COS(N)(=O)=O)OC(C)(C)O[C@@H]23)O1 [Topiramate], the “benefit in treatment of MUD” value [1] is listed as “insufficient evidence of benefit for reducing MUD”.

In the case of CNCC[C@@H](Oc1ccccc1C)c1ccccc1 [atomoxetine], the “benefit in treatment of MUD” value [1] is given as “insufficient evidence of benefit for reducing MUD”.

For CC(NC(C)(C)C)C(=O)c1cccc(Cl)c1 (stereo not shown) [bupropion], the “benefit in treatment of MUD” value [1] is listed as “not effective”.

For CN1CCN2c3ncccc3Cc3ccccc3C2C1 (stereo not shown) [mirtazapine], the “benefit in treatment of MUD” value [1] is listed as “not effective”.

For NCC1(CC(=O)O)CCCCC1 [gabapentin], the “benefit in treatment of MUD” value [1] is given as “insufficient evidence of benefit for reducing MUD”.

In the case of O=C1CC[C@@]2(O)[C@H]3Cc4ccc(O)c5c4[C@@]2(CCN3CC2CC2)[C@H]1O5 [naltrexone], the “benefit in treatment of MUD” value [1] is listed as “insufficient evidence of benefit for reducing MUD”.

In the case of CN[C@H]1CC[C@@H](c2ccc(Cl)c(Cl)c2)c2ccccc21 [sertraline], the “benefit in treatment of MUD” value [1] is given as “not effective”.

For O=C1CCc2ccc(OCCCCN3CCN(c4cccc(Cl)c4Cl)CC3)cc2N1 [aripiprazole], the “benefit in treatment of MUD” value [1] is listed as “insufficient evidence of benefit for reducing MUD”.

For COC(=O)C(c1ccccc1)C1CCCCN1 (stereo not shown) [methylphenidate], the “benefit in treatment of MUD” value [1] is listed as “low-strength evidence that methylphenidate may reduce METH use”.

For c1cnc2cc3c(cc2n1)[C@@H]1CNC[C@H]3C1 [varenicline], the “benefit in treatment of MUD” value [1] is given as “insufficient evidence of benefit for reducing MUD”.

For NCC(CC(=O)O)c1ccc(Cl)cc1 (stereo not shown) [baclofen], the “benefit in treatment of MUD” value [1] is given as “insufficient evidence of benefit for reducing MUD”.

In the case of Cc1nccn1CC1CCc2c(c3ccccc3n2C)C1=O (stereo not shown) [ondansetron], the “benefit in treatment of MUD” value [1] is listed as “No effects”.

B1: brain-derived neurotrophic factor (protein, UniProt P23560 19-247, looked up)
Neurotrophic factor BDNF …: APMKEANIRGQGGLAYPGVRTHGTLESVNGPKAGSRGLTSLADTFEHVIEELLDEDQKVRPNEENNKDADLYTSRVMLSSQVPLEPPLLFLLEEYKNYLDAANMSMRVRRHSDPARRGELSVCDSISEWVTAADKKTAVDMSGGTVTVLEKVPVSKGQLKQYFYETKCNPMGYTKEGCRGIDKRHWNSQCRTTQSYVRALTMDSKKRIGWRFIRIDTSCVCTLTIKRGR
notes: neurotrophin
For B1, the in vivo half-life is listed as less than 5 min.
